The CC50 is the concentration that lowers cell viability or growth by half. As usually defined, the AC50 is the concentration at which the activity in the assay is half-maximal. For orientation: EC50 means the concentration at which the effect is half-maximal.

The results in this text go back to ChEMBL document CHEMBL1201862, “PubChem BioAssay data set” (2004).

The target of assay [1] is Glucose-6-phosphate 1-dehydrogenase (Homo sapiens, UniProt P11413). Description: inhibition of Homo sapiens G6PD, dose series – biochemical, fluorescence, selectivity assay for P. falciparum G6PD inhibitor project, dose response (AID 504792). Format: functional.
Assay [2] is described as follows: viability of uninfected HEp-2 cells – cell-based, HTS, cytotoxicity control for RSV inhibitor project, dose response (AID 2410). Format: functional. The settings on record: human respiratory syncytial virus.
Assay [3] has as its system Vero. In words: cells. Format: functional, cell-based. The settings on record: Chlorocebus sabaeus.
The nature of assay [4]: P. falciparum Dd2 growth inhibitors, dose response, SYBR Green, cherry-picked samples (AID 1159567). Format: functional, cell-based.
Assay [5] in a line: toxicity to human hepatoma HepG2 cells – cell-based, cherry-picked samples, cytotoxicity control, dose response (AID 1159577). Format: functional.
Assay [6] deals with Ras and Rab interactor 1/Tyrosine-protein kinase ABL1 (Homo sapiens, UniProt P00519+Q13671). Format: functional.
The subject of assay [7] is HEK293. In words: cells. Format: functional, cell-based. To be noted: Homo sapiens.
For assay [8], the system named is HEK293. Description: cells. Format: functional, cell-based. The settings on record: Homo sapiens. The source holds these as a separate data set.
For assay [9], the system named is HEK293. Description: inhibition of NOD1-driven NF-kB reporter – cell-based, luminescence, uHTS, primary screen (AID 1578). Format: functional. To be noted: Homo sapiens.
In assay [10] the test system is HEK293. In words: cells. Format: functional, cell-based. The settings on record: Homo sapiens. The source holds these as a separate data set.
Assay [11] deals with HEK293. In words: NOD2 signaling inhibitors in MDP-stimulated cells, cell-based, uHTS, luminescence (AID 2001). Format: functional. The settings on record: Homo sapiens.
The target of assay [12] is Nucleotide-binding oligomerization domain-containing protein 2 (Homo sapiens, UniProt Q9HC29). In words: inhibition of NOD2-driven NF-kB reporter – cell-based, luminescence, uHTS, HEK293 (AID 1566). Format: functional.
Assay [13] deals with T1, Heat shock factor protein 1 (Mus musculus, UniProt P38532).
T1 sequence (P38532 whole entry): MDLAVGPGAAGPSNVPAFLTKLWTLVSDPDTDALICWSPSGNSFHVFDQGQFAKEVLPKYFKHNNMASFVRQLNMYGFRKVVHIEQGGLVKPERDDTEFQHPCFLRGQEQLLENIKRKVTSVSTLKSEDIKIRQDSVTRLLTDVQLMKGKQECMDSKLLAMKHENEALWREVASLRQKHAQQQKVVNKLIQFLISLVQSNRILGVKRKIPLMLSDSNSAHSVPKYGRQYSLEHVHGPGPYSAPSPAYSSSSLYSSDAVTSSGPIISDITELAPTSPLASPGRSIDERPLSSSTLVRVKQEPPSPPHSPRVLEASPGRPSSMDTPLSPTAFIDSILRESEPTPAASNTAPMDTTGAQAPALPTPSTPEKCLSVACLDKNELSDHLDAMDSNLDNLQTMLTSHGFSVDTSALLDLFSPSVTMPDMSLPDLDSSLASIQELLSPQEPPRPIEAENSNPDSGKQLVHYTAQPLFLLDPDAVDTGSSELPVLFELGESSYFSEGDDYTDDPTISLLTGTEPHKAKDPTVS
In words: enhancement of HSF1-driven luciferase signal – cell-based, NIH3T3, luminescence, dose retest, confirmation (AID 435004).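 Note: stress induced by proteasome inhibitor MG132 added 30 min after compound; luciferase reporter driven by HSF1 response element in NIH3T3 cells; actives raise luminescence as potentiators of the MG132 stress response.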 Format: functional.

In assay [14] the test system is Vero. In words: cells. Format: functional. The settings on record: Chlorocebus sabaeus.
Assay [15] is described as follows: viability loss in THP-1 monocytes – THP-1 cells, cytotoxicity control for Vif-APOBEC3G degradation inhibitor project, dose response (AID 1117359). Format: functional. The settings on record: THP-1.
Assay [16] addresses T2, Short transient receptor potential channel 4 (Mus musculus, UniProt Q9QUQ5).
T2 sequence (Q9QUQ5 whole entry): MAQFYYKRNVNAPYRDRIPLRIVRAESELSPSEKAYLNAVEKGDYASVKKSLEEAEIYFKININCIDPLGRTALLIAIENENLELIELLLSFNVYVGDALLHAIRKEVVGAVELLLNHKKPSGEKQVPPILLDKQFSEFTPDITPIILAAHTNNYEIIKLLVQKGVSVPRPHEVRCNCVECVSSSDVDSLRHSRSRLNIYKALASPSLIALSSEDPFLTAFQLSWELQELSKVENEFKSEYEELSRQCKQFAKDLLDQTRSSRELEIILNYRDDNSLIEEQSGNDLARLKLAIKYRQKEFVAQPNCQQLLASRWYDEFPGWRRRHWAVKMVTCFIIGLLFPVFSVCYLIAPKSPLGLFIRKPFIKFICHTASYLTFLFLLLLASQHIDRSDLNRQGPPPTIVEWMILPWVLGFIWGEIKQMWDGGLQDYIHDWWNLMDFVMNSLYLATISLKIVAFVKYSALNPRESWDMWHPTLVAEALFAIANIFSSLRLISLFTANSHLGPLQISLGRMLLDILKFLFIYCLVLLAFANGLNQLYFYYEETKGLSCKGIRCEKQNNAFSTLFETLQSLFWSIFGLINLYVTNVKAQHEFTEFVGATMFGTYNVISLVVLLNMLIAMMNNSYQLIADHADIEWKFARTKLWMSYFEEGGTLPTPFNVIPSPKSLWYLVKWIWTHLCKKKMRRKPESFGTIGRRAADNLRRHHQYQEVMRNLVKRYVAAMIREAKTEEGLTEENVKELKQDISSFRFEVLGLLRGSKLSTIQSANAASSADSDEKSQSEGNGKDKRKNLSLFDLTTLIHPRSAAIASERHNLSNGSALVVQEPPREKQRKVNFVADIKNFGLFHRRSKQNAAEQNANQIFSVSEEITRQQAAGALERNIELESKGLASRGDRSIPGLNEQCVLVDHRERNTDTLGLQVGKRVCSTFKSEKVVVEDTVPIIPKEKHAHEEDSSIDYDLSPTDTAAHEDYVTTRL
In words: calcium entry via TRPC4 opening agents – cell-based, HEK293 TRPC4/mu-opioid, Fluo-4 calcium, dose response (AID 434937). Format: functional.

The target in assay [17] is T3, Low molecular weight phosphotyrosine protein phosphatase (Homo sapiens, UniProt P24666).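 Note: Dose-response confirmation assay measuring inhibition of LMPTP enzyme activity by fluorescence intensity read-out.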
T3 sequence (P24666 whole entry): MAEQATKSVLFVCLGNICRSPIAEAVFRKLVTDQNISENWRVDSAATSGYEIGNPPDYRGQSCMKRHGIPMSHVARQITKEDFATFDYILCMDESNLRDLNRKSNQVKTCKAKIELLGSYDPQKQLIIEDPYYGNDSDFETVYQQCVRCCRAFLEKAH
Format: functional. The settings on record: read-out: IC50_Mean.

The nature of assay [18]: Luminescence Cell-Based Dose Retest to Confirm Inhibitors of Cancer Stem Cells. [Related pubchem assays (depositor defined):AID2717, AID2721]. Format: functional. The settings on record: Homo sapiens.
Assay [19] can be described thus: NIH-3T3 fibroblast cytotoxicity, dose response, cytotoxicity control, cell-based, fluorescence, Alamar Blue, secondary assay (AID 2327).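 Note: NIH-3T3 mouse fibroblasts cultured with fluconazole at 8 µg/mL.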 Format: functional. On the technique in general: Alamar Blue is a resazurin reagent that responds to reducing activity.
Assay [20] in a line: fluconazole-exposed Candida albicans growth modulators – fluorescence, retest, confirmation (AID 2467). Format: functional, cell-based.
The target in assay [21] is FAD-linked sulfhydryl oxidase ALR (Homo sapiens, UniProt P55789). Description: ALR-catalysed DTT oxidation blockers – biochemical, H2O2 detection, luminescence, cherry-pick, dose response (AID 493248).

Structures are written as SMILES. Active and inactive are the calls of the source. A value given as a limit tells only on which side of the number the result lay.

Sequence of Ras and Rab interactor 1/Tyrosine-protein kinase ABL1 (P00519 whole entry): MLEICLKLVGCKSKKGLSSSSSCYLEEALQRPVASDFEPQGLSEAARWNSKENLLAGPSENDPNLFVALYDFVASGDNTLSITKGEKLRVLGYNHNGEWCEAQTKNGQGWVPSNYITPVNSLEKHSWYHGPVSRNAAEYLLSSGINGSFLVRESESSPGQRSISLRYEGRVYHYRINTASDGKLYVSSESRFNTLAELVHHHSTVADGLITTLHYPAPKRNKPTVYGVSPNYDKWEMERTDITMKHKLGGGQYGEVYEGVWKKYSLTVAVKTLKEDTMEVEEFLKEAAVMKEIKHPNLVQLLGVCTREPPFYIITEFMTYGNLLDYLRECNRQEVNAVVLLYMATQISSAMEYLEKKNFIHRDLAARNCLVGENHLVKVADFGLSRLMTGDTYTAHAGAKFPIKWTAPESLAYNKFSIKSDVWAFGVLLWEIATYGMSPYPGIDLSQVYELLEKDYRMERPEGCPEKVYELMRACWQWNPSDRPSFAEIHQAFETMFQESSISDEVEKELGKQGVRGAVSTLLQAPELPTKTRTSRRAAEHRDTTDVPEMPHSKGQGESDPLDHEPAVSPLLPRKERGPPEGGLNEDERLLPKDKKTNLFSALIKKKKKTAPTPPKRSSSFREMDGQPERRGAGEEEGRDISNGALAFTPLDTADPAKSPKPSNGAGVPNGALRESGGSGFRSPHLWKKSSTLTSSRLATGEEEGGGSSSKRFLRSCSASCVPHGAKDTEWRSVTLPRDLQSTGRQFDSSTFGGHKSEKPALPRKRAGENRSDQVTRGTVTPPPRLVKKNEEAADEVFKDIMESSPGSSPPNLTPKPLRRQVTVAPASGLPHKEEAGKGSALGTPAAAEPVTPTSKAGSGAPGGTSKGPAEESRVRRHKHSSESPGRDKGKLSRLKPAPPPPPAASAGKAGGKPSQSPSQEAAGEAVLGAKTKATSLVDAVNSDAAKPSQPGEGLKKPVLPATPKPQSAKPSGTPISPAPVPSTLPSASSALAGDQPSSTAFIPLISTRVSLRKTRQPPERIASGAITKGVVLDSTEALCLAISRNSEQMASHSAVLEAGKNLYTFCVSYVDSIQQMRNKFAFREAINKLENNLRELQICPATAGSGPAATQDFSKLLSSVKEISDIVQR
Sequence of Ras and Rab interactor 1/Tyrosine-protein kinase ABL1 (Q13671 whole entry): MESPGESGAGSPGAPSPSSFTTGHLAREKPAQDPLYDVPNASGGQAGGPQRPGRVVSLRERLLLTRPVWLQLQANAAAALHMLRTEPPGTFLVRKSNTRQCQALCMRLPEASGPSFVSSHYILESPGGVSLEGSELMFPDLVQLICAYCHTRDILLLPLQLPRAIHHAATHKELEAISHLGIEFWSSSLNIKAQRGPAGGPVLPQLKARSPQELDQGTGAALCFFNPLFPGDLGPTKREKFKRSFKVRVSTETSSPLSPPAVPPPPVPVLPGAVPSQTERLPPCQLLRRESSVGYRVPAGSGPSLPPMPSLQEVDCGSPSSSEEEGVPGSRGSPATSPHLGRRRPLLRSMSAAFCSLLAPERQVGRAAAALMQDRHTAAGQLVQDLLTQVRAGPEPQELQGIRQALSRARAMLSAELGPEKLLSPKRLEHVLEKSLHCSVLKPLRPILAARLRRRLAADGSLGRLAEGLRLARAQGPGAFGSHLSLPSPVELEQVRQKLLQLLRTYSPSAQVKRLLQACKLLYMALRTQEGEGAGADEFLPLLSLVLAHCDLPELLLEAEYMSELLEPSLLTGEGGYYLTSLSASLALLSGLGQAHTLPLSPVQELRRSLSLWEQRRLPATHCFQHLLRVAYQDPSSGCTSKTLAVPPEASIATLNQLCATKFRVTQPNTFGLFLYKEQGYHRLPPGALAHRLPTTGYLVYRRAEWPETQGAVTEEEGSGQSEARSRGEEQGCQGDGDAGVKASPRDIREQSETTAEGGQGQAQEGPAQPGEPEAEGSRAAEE
Sequence of Glucose-6-phosphate 1-dehydrogenase (P11413 whole entry): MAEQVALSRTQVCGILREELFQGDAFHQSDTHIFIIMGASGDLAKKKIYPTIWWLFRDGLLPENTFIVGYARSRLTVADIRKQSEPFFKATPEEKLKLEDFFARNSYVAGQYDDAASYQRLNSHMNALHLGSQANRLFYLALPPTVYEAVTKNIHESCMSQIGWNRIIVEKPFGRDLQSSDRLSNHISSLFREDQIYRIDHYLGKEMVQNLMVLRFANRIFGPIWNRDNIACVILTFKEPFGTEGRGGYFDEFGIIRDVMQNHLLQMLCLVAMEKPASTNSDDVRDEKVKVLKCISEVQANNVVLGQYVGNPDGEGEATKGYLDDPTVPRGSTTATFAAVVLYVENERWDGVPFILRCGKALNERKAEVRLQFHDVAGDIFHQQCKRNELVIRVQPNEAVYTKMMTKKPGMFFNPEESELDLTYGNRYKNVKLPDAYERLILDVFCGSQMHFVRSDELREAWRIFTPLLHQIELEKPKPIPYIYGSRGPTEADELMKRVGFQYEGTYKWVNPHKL
Sequence of Nucleotide-binding oligomerization domain-containing protein 2 (Q9HC29 whole entry, the tested form may be a part): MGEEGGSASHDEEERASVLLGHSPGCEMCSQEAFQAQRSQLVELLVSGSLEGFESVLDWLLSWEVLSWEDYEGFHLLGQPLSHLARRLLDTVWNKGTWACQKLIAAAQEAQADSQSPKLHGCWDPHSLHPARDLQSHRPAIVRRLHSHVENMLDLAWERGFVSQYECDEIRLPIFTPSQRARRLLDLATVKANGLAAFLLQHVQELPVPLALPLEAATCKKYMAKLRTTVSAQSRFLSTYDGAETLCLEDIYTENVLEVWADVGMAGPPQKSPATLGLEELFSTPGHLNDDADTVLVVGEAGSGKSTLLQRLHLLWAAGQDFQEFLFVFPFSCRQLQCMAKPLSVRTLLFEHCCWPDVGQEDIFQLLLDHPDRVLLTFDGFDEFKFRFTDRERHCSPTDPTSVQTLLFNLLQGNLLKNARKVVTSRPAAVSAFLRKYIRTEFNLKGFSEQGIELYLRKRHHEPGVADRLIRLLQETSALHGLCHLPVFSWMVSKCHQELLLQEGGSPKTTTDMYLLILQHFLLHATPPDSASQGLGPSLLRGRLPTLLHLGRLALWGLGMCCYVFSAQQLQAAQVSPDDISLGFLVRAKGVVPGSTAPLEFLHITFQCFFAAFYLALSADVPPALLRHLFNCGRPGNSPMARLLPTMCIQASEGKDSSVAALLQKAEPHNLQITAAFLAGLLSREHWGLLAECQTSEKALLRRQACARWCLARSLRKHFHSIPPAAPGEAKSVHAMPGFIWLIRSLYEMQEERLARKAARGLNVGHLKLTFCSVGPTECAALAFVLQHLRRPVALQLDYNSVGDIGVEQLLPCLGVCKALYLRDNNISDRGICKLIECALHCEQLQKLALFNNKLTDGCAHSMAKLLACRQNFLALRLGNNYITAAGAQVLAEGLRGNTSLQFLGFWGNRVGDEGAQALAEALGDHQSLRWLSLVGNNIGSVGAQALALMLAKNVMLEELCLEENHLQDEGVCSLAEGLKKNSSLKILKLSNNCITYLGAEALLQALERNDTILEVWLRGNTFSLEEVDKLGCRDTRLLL
Sequence of FAD-linked sulfhydryl oxidase ALR (P55789 whole entry): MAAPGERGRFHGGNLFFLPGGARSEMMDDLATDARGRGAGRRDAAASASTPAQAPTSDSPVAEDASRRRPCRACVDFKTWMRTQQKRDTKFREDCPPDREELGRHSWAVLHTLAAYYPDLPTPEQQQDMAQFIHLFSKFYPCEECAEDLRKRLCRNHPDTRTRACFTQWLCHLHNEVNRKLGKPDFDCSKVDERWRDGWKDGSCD

For the compound `CC1(OC(=O)C2CCCC2)C(=O)C=C2C=C(c3ccsc3)N(CC3CC3)C=C2C1=O` (centres undefined), the IC50 in [1] was 64.3 µM (inactive).

Consider `Cc1sc(NC(=S)NC(=O)c2ccc(C(C)(C)C)cc2)c(C#N)c1C`, for which the CC50 in assay [2] was 46.8 µM (active). Further, in the assay on Vero [3], the IC50 is 13.9 µM (active).

Take `CC(C)NC(=O)N1CCCCN2[C@H](CO)[C@@H](c3ccc(C#C[C@@H](C)O)cc3)[C@@H]2C1`: the results for the AC50 in [4] and in assay [5] were 27.8 µM (active) and > 39 µM (inactive), respectively.

Regarding `CN(C(=O)c1ccc(NC(=O)Cc2cccc(NC(=O)C3CCN(C(=O)c4ccccc4)CC3)c2)cc1)C1CC1`, the IC50 in assay [6] was 15.3 µM (inactive).

For `Cc1ccc(C(=O)NC(=C(Cl)Cl)S(=O)(=O)c2ccc(Cl)cc2)cc1`, the IC50 in the assay with HEK293 [7] is 3.42 µM (active); in the assay with HEK293 [8], > 20 µM (inactive); in the assay on HEK293 [10], > 20 µM (inactive); in the assay on HEK293 [11], 5.03 µM (inactive). Moreover, the EC50 was 2.2 µM (active) in the assay with HEK293 [9], > 20 µM (inactive) in assay [12] and 7.82 µM (active) in assay [13].

On to `CCOc1ccccc1Nc1nnc(SC(C)C(=O)Nc2nc(-c3ccccc3)cs2)s1` (centres undefined), for which the IC50 in the assay on Vero [3] was > 12.5 µM (active).

In the case of `CN(C(=O)CCN1C(=O)/C(=C/c2ccccc2)SC1=S)C1CCS(=O)(=O)C1` (centres undefined), the CC50 with Vero [14] was 21.2 µM (active).

For `CCOc1ccc(N(CC(=O)N2CCC(Cc3ccccc3)CC2)S(C)(=O)=O)cc1`, the CC50 in assay [15] was > 40 µM (active).

As to `NC1=NC2(CCN(Cc3ccccc3)CC2)n2c(nc3ccccc32)N1`, the EC50 in assay [16] is 0.299 µM (active). Moreover, in assay [17], the IC50 is 27.1 µM (inactive).

Take `Cc1c(CCO)c(=O)[nH]n1C(=O)c1c(F)cccc1F`: the CC50 in the assay on Vero [14] was > 25 µM (active). Also, the IC50 with Vero [3] was 15.4 µM (active).

Turning to `COc1ccc(C2c3c(nc[nH]c3=O)Oc3nc[nH]c(=O)c32)cc1`, in assay [6], the IC50 is 2.87 µM (active).

On to `Cc1cccc(-c2ccc([C@@H]3[C@@H](CO)N4CCCCN(CCC(F)(F)F)C[C@H]34)cc2)c1`, for which the AC50 in assay [4] was 0.801 µM (active); in assay [5], 8.79 µM (active).

For the compound `COC(=O)c1ccc(CSc2nnc(CNC(=O)COc3ccc(Cl)cc3)o2)o1`, the IC50 in assay [6] was 21.4 µM (inactive).

With `CC1(C)CN(c2ccccc2)N(C(=O)c2ccc(C#N)cc2)C1=O`, the figures for the half-maximal activity concentration (AC50) in assay [18] and in assay [21] were 3.56 µM (active) and 1.72 µM (active), respectively. The EC50 in assay [19] is 4.88 µM (active); in [20], > 38 µM (not active). For the same compound, the IC50 in [1] is > 80 µM (inactive).

As for `O=C(C[C@H]1C[C@@H]2c3cc(NC(=O)c4cccnc4)ccc3O[C@@H]2[C@@H](CO)O1)NCc1ccc(Oc2ccccc2)cc1`, the AC50 in assay [4] is 13.7 µM (active); in [5] it was > 39 µM (inactive).

Regarding `COc1ccc(S(=O)(=O)N2CCC3(CC2)CN(C(=O)CN(C)C)[C@@H](CO)c2c3c3ccc(OC)cc3n2C)cc1`, the AC50 was 2.53 µM (active) in [4] and 18.8 µM (active) in assay [5].

With `Cc1cc(C(=O)CCl)c(C)n1-c1c(C)n(C)n(-c2ccccc2)c1=O`, in assay [15], the CC50 was > 40 µM (active).
